# Measured values reported in US10176292B2, “STING crystals and modulators” (MEMORIAL SLOAN-KETTERING CANCER CENTER, priority 2013, dated 2019).
# Assays:
# hSTING I235L = molecular target: T1, hSTING I235L (Homo sapiens, UniProt Q86WV6, H232R/I235L); assay: IFN-β luciferase reporter, hSTING I235L; assay type: cell-based; details: 0.18 mM DMXAA, 12 hours
# T1 construct: Full-length hSTING (wt and substitutions) and mSTING (wt) constructs were used for this cellular assay; expressed in transfected cells; host or cells: 293T
# T1 sequence (Q86WV6 whole entry H232R/I235L): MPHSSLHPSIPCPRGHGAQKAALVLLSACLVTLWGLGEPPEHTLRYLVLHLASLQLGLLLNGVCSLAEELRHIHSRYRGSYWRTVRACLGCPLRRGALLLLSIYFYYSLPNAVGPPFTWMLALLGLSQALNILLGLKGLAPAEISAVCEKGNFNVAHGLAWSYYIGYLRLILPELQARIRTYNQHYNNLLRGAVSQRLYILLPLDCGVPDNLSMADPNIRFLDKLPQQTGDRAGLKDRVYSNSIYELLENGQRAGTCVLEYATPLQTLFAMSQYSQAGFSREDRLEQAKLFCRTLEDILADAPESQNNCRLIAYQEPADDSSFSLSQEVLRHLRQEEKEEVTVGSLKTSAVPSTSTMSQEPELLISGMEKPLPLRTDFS
# Protocol: (§1) Luciferase assays for DMXAA experiments were performed as described above. Briefly, 3×10^4 293T cells were reverse-transfected with STING constructs (5 ng per 96-well) and reporter constructs (50 ng pIFNβ-Gluc, 10 ng pLenti-EF1-Fluc for normalization, 35 ng pMAX-empty as stuffer, delivered with TransIT-LT1, MirusBio, Madison Wis.). […] 12 hours after stimulation with STING-ligands, cells were resuspended in passive lysis buffer and luciferase activity was determined using the respective substrates Coelenterazine and D-Luciferin (PJK, Kleinblittersdorf, Germany). Gaussia Luciferase values were then normalized to constitutive Firefly Luciferase values (resulting in Relative Light Units, RLU).
# hSTING^S162A/G230I/Q266I = hSTING^S162A/G230I/Q266I (Homo sapiens, UniProt Q86WV6, G230I/H232R/Q266I/S162A); assay: CXCL10 ELISA in STING^Gt/Gt BMDCs transduced with hSTING^S162A/G230I/Q266I; assay type: cell-based; details: 50 μg/ml DMXAA, supernatants at 18 h; compared with the other hSTING substituents
# Chain of hSTING^S162A/G230I/Q266I (Q86WV6 whole entry S162A/G230I/H232R/Q266I): as the sequence (Q86WV6 whole entry H232R/I235L) above, with S162A, G230I, L235I, Q266I counted along it
# Protocol: (§2) The protocol for generation of bone marrow-derived dendritic cells was described before (Dai et al., 2014). […] BMDCs (1×10^6 cells/well) were infected with retroviruses expressing hSTING (wt and various substitution mutants).
# (§3) hSTING cDNAs were cloned into pQCXIP-HA vector. In vitro packaging system was used to generate retroviruses according to protocol (Clontech). BMDCs (1×10^6 cells/well) were seeded into 6-well plates and infected with retroviruses. […] CXCL10 protein level was determined by ELISA.
# CXCL10 was measured using the BD Opteia human IP-10 ELISA Set according to manufacturer's recommendations. Murine IFN-α was determined by ELISA using antibody RMMA-1 for capture and rabbit-anti-murine IFN-α polyclonal antibody for detection (PBL Interferon Source, Piscataway, N.J.). Dose-response curves were fitted and EC50 values were determined with Graphpad Prism (Graph Pad Software Inc., San Diego, Calif.).
# hSTING^G230I [1] = molecular target: T2, hSTING^G230I (Homo sapiens, UniProt Q86WV6, G230I/H232R); assay: IFN-β luciferase reporter, hSTING^G230I; assay type: cell-based; design: Full-length hSTING (wt and substitutions) and mSTING (wt) constructs were used for this cellular assay; expressed in transfected cells; host or cells: 293T; details: ascending concentrations of DMXAA, 12 hours
# T2 sequence (Q86WV6 whole entry G230I/H232R): as the sequence (Q86WV6 whole entry H232R/I235L) above, with G230I, L235I counted along it
# Protocol: as §1
# [2] = test system: non-small-cell lung cancer; details: with paclitaxel and carboplatin, non-small-cell lung cancer (Lara et al. 2011); cited from earlier work
# [3] = molecular target: T3, hSTING^S162A/Q266I (aa 155-341) (Homo sapiens, UniProt Q86WV6, H232R/Q266I/S162A); assay: X-ray crystal structure of DMXAA-hSTING^S162A/Q266I complex (Table 8 coordinates); details: X-ray refinement (PHENIX) of DMXAA-hSTING^S162A/Q266I complex
# T3 construct: His6-SUMO (N, cleaved yes); made in house; host or cells: E. coli BL21 (DE3) RIL, modified pRSFDuet-1 vector
# T3 sequence (Q86WV6 155-341 S162A/H232R/Q266I): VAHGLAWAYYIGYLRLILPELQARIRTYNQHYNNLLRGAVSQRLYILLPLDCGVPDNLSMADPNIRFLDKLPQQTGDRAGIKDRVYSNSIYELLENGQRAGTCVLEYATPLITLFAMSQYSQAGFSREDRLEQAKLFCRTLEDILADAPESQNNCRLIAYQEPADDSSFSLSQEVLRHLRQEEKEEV
# Protocol: The crystals were generated by sitting drop vapor diffusion method at 20° C., by mixing equal volume reservoir solution with the sample. The detailed conditions are listed below: DMXAA-hSTING^group2: 2 M LiCl, 10% PEG6000, 0.01 M CaCl2, 0.1 M Tris, pH 7.8; DMXAA-hSTING^G230I: 0.2 M Li2SO4, 20% PEG 3350, 0.015 mM CYMAL®-7, 0.1 M Tris, pH 8.1; DMXAA-hSTING^S162A/Q266I: 0.2 M Ca(Ac)2, 15% PEG3000, 0.01 M L-Proline, 0.1 M NaAc, pH 5.1; DMXAA-hSTING^S162A/G230I/Q266I: 0.2 M Ca(Ac)2, 15% PEG3000, 0.1 M LiCl, 0.1 M NaAc, pH 5.1. All structures were solved using PHASER, COOT, PHENIX, and REFMAC programs.
# (PDB: 4F5D) as the search model. […] For the cGAMP-STING binary structures, two STING molecules in the STING dimer have equal probability to bind with either G or A moiety of the cGAMP isomers. […] We therefore assigned two conformations with 0.5 occupancy for bound cGAMP isomers.
# (PDB: 4LOH) as the search model.
# The model building was conducted using the program COOT (Emsley et al., 2010) and structural refinement was conducted using the program REFMAC (Murshudov et al., 1997).
# hSTING^G230I [4] = molecular target: T2, hSTING^G230I; assay: Real-time PCR in STING^Gt/Gt BMDCs transduced with hSTING^G230I; assay type: cell-based; details: 50 μg/ml DMXAA, 3 hours
# Protocol: as §2, §3
# [5] = test system: hSTING S162A (hSTING^H232 and hSTING^R232 background); assay type: cell-based, human; details: DMXAA in medium, 12 h; hSTING^H232 and hSTING^R232 background
# hSTING^H232/V162 = hSTING^H232/V162 (Homo sapiens, UniProt Q86WV6, S162V); assay: ITC binding, hSTING^H232/V162; details: Protein: 0.08 mM; Ligands: 0.8 mM; 180 mM NaCl, pH 7.5; 25° C.
# Chain of hSTING^H232/V162 (Q86WV6 140-379 S162V): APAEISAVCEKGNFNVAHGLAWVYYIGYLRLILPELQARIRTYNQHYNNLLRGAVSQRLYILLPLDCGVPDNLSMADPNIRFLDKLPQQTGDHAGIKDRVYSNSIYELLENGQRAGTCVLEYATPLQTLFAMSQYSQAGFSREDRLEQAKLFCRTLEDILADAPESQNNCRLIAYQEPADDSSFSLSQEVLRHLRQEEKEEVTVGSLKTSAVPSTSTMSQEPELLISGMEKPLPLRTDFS
# hSTING^R232/A162 = hSTING^R232/A162 (Homo sapiens, UniProt Q86WV6, H232R/S162A); assay: ITC binding, hSTING^R232/A162; details: Protein: 0.08 mM; Ligands: 0.8 mM; 30 mM HEPES, 180 mM NaCl, pH 7.5; 25° C.
# Chain of hSTING^R232/A162 (Q86WV6 140-379 S162A/H232R): as the sequence (Q86WV6 140-379 S162V) above, with V23A, H93R counted along it
compound,measurement,setting,value
"Cc1ccc2c(=O)c3cccc(CC(=O)O)c3oc2c1C [DMXAA, 5,6-dimethylxanthenone-4-acetic acid]",DMXAA-mediated IFN-β induction,hSTING I235L,no effects
same,CXCL10 production (ELISA),hSTING^S162A/G230I/Q266I,highest level of CXCL10 production
same,"IFN-β induction activity (luciferase), DMXAA",hSTING^G230I [1],almost identical IFN-β induction as hSTING^group2
same,outcome of human phase III trials,[2],failed
same,FREE R VALUE,[3],REMARK 3 FREE R VALUE: 0.2288
same,R VALUE (WORKING SET),[3],REMARK 3 R VALUE (WORKING SET): 0.1826
same,RESOLUTION RANGE HIGH (ANGSTROMS),[3],REMARK 3 RESOLUTION RANGE HIGH (ANGSTROMS): 2.420
same,increases in IFN-β mRNA levels,hSTING^G230I [4],2.6 fold
same,IFN luciferase reporter response to DMXAA,[5],enabled recognition of DMXAA
same,TΔS,hSTING^H232/V162,+7.84 Kcal/mol
same,ΔG,hSTING^H232/V162,-7.45 kcal/mol
same,ΔH,hSTING^H232/V162,+0.39 Kcal/mol
same,TΔS,hSTING^R232/A162,+8.65 Kcal/mol
same,ΔG,hSTING^R232/A162,-8.29 kcal/mol
same,ΔH,hSTING^R232/A162,+0.36 Kcal/mol
